Test results: paper PMC7344390, “Leptogorgins A–C, Humulane Sesquiterpenoids from the Vietnamese Gorgonian Leptogorgia sp” (Marine Drugs, 2020)

Assays:
[1] = tested on: PNT2 cells (human prostate non-cancer cells); test: In vitro MTT-based drug sensitivity assay, PNT2 cells; conditions: 72 h treatment, read-out: IC50 (cell viability, MTT)
Protocol: (§1) The human prostate cancer cells 22Rv1 and human prostate non-cancer cells PNT2 were purchased from ATCC. Cell lines were cultured according to the manufacturer’s instructions in 10% FBS/RPMI media (Invitrogen, Carlsbad, CA, USA) and handled as described in [29].
(§2) The in vitro cytotoxic activities of the isolated substances were evaluated by MTT assays. The assays were performed as described previously. In brief, cells were seeded in 96-well plates (6 × 10^3 cells/well), incubated overnight, and treated with the tested compounds for 72 h. Next, 10 μL/well of MTT reagent was added and the plates were incubated for 2 h. The media were aspirated and the plates were dried. The formed formazan crystals were dissolved in DMSO and the cell viability was measured using an Infinite F200PRO reader (TECAN, Männedorf, Switzerland). Results were calculated by the GraphPad Prism software v. 7.05 (GraphPad Prism software Inc., La Jolla, CA, USA) and are represented as the IC50 of the compounds against the control cells treated with the solvent alone.

[2] = tested on: 22Rv1 cells (human drug-resistant prostate cancer cells); test: In vitro MTT-based drug sensitivity assay, 22Rv1 cells; conditions: 72 h treatment, read-out: IC50 (cell viability, MTT)
Protocol: as §1, §2

NCF-7 = tested on: NCF-7; design: method as in PMID 12881017; conditions: human cancer NCF-7 cell line; more active than curcumin; cited from earlier work
HT-29 = tested on: HT-29; design: method as in PMID 12881017; conditions: human cancer HT-29 cell line; more active than curcumin; cited from earlier work
CaCO-2 = tested on: CaCO-2; design: method as in PMID 12881017; conditions: human cancer CaCO-2 cell line; more active than curcumin; cited from earlier work

IC50 [2] [µM] | SMILES | IC50 [1] [µM] | antitumor activity (NCF-7) | antitumor activity (HT-29) | antitumor activity (CaCO-2)
31 | CC1=CCC(C)(C)C=CC(=O)C(CO)=CC(O)C1 (stereo not drawn) [Compound 1, 4-oxohumula-2E,5E,9E-trien-7S,12-diol] | 35.8 | – | – | –
> 100 | CC(=O)OC1C=C(CO)C(=O)C=CC(C)(C)CC=C(C)C1 (stereo not drawn) [Compound 2, 4-oxohumula-2E,5E,9E-trien-7S-acetate,12-ol] | > 100 | – | – | –
0.084 | COc1cccc2c1C(=O)c1c(O)c3c(c(O)c1C2=O)C[C@@](O)(C(=O)CO)C[C@@H]3O[C@H]1C[C@H](N)[C@H](O)[C@H](C)O1 [Doxorubicine] | 1.12 | – | – | –
– | C/C1=C\CC(C)(C)/C=C/C(=O)/C(C)=C/CC1 [zurumbone, 2,6,9-humulatriene-8-one] | – | active | active | active
